Laboratory results taken from ChEMBL document CHEMBL5584285, “Advancements in Protein Degradation for Cancer Therapy” (ACS Med Chem Lett, 2024).

Experiments:
[1] = molecular target: GTPase KRas (Homo sapiens, UniProt P01116, G12V); assay: Induction of KRAS G12V mutant degradation in human SW1990 cells incubated for 24 hrs; assay type: cell-based
[2] = Binding affinity to 6His-tagged KRAS G12V mutant /GST-tagged RAF1 (unknown origin) incubated for 60 mins by fluorescence based microplate reader assay; parameters: species or system Homo sapiens

Sequence of GTPase KRas (P01116 whole entry G12V): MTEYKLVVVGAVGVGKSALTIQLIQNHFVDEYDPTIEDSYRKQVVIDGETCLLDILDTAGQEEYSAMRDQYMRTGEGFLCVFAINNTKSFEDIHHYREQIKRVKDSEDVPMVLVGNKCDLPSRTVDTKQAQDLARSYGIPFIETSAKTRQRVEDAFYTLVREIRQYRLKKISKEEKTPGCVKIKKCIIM

DC50 [1] [µM]	IC50 [2] [µM]	Structure (SMILES)
≤ 0.001	≤ 0.02	CCc1c(F)ccc2cc(O)cc(-c3ncc4c(N5CCC[C@@](C)(O)C5)nc(OCC5(CN6CCC(C)(CN7CC8(CCN(c9ccc%10c(c9)CN([C@H]9CCC(=O)NC9=O)C%10=O)CC8)C7)CC6)CC5)nc4c3F)c12
≤ 0.001	≤ 0.02	CCc1c(F)ccc2cc(O)cc(-c3ncc4c(N5CCC[C@@](C)(O)C5)nc(OCC5(CN6CCC7(CC6)CC(N6CCN(c8ccc9c(c8)CN([C@H]8CCC(=O)NC8=O)C9=O)CC6)C7)CC5)nc4c3F)c12
≤ 0.001	≤ 0.02	CCc1c(F)ccc2cc(O)cc(-c3ncc4c(N5CCC[C@@](C)(O)C5)nc(OCC5(CN6CCC(OC7CCN(C8CCN(c9ccc%10c(c9)CN(C9CCC(=O)NC9=O)C%10=O)CC8)CC7)CC6)CC5)nc4c3F)c12 (some centres not stated)
0.001	0.02	CCc1c(F)ccc2cc(O)cc(-c3ncc4c(N5CCC[C@]6(CCO6)C5)nc(OCC5(CN6CCC(CN7CCN(c8ccc9c(c8)CN([C@H]8CCC(=O)NC8=O)C9=O)CC7)CC6)CC5)nc4c3F)c12
≤ 0.001	≤ 0.02	CCc1c(F)ccc2cc(O)cc(-c3ncc4c(N5CCC[C@@](C)(O)C5)nc(OCC5(CN6CC(N7CCC(N8CCN(c9ccc%10c(c9)CN([C@H]9CCC(=O)NC9=O)C%10=O)CC8)CC7)C6)CC5)nc4c3F)c12
≤ 0.001	0.02	CCc1cccc2cc(O)cc(-c3ncc4c(N5CCC[C@@](C)(O)C5)nc(OCC5(CN6CCC(OC7CCN(c8ccc9c(c8)CN(C8CCC(=O)NC8=O)C9=O)CC7)CC6)CC5)nc4c3F)c12 (some centres not stated)
